test system: purified NO synthase from pig liver; assay: Inhibition of the activity of purified nitric oxide synthase (NOS), 3H-L-citrulline formation, enzyme from pig liver; type: biochemical; conditions: substance 100 μM, antagonistic test in the presence of 2 μM tetrahydrobiopterin, 37° C., 15 minutes
Source text: The inhibition of NO release by the compounds of the formula I can be determined by an activity assay based on the studies of Bredt and Snyder and also Schmidt et al. (see D. S. Bredt and S. S. Snyder, Isolation of nitric oxide synthase, a calmodulin-requiring enzyme, Proc. Natl. Acad. Sci. USA 87 (1990), 682; H. H. H. W. Schmidt et al., Purification of a soluble isoform of guanylyl cyclase-activating factor synthase, Proc. Natl. Acad. Sci. USA 88 (1991), 365). In this assay for purified NO synthase (NOS) the coproduct L-citrulline obtained during NO formation is determined quantitatively. […] After the enzyme incubation is complete, resulting L-citrulline is removed from unused L-arginine by means of ion-exchange chromatography of the reaction mixture; the ^3 H-activity determined by liquid scintillation measurement then corresponds to the amount of L-citrulline. […]
The coproduct L-citrulline obtained during the formation of NO by purified NOS is determined quantitatively in this activity assay. […] After the enzyme incubation is complete, resulting L-citrulline is removed from unused L-arginine by means of ion-exchange chromatography of the reaction mixture; the ^3 H activity measured by liquid scintillation then corresponds to the amount of L-citrulline, which is a direct measure of the activity of NOS. […]

Citrulline formation (% of the control)	Structure (SMILES)
22.4 % of the control	N=c1[nH]c(N)nc2ncc(CN)nc12 [Example 76]

test system: NO synthase; assay: not given; conditions: literature reports (Kwon et al.; Giovanelli et al.; Hevel and Marletta); cited from earlier work

Structure (SMILES)	Effect on NO production / NO synthase activity
C[C@H](O)[C@H](O)[C@H]1CNc2nc(N)[nH]c(=O)c2N1 [tetrahydrobiopterin]	stimulates NO production
CC1CNc2nc(N)[nH]c(=O)c2N1 (stereo not shown) [6-methyl-5,6,7,8-tetrahydropterin]	increase in NO synthase activity
C[C@H](O)[C@H](O)c1cnc2nc(N)[nH]c(=O)c2n1 [biopterin]	no significant effects
Nc1nc2ncc(CNc3ccc(C(=O)N[C@@H](CCC(=O)O)C(=O)O)cc3)nc2c(=O)[nH]1 [folic acid]	no significant effects
Nc1nc2nccnc2c(=O)[nH]1 [pterin]	no significant effects
C[C@H](O)[C@H](O)C1=Nc2c(nc(N)[nH]c2=O)NC1 [7,8-dihydrobiopterin]	Stimulation of NO production

target: T1, purified NO synthase from pig cerebellum (Sus scrofa, UniProt F1RKF2); assay: Inhibition of the activity of purified nitric oxide synthase (NOS), 3H-L-citrulline formation, enzyme from pig cerebellum; type: biochemical; conditions: 0.25 h, substance 100 μM, antagonistic test in the presence of 2 μM tetrahydrobiopterin, 37° C., 15 minutes, read-out: Citrulline formation (% of the control)
T1 construct: purified NO synthase from pig cerebellum; from tissue; host or cells: pig cerebellum
Procedure: In this assay for purified NO synthase (NOS) the coproduct L-citrulline obtained during NO formation is determined quantitatively. This is carried out by the use of ^3 H-radiolabeled L-arginine as a substrate of the enzyme reaction, which is reacted to give ^3 H-L-citrulline and NO. After the enzyme incubation is complete, resulting L-citrulline is removed from unused L-arginine by means of ion-exchange chromatography of the reaction mixture; the ^3 H-activity determined by liquid scintillation measurement then corresponds to the amount of L-citrulline.
The coproduct L-citrulline obtained during the formation of NO by purified NOS is determined quantitatively in this activity assay. The substrate of the enzyme reaction employed is ^3 H-radiolabeled L-arginine, which is reacted to give ^3 H-L-citrulline and NO. After the enzyme incubation is complete, resulting L-citrulline is removed from unused L-arginine by means of ion-exchange chromatography of the reaction mixture; the ^3 H activity measured by liquid scintillation then corresponds to the amount of L-citrulline, which is a direct measure of the activity of NOS.
The base medium for carrying out the enzyme reaction is TE buffer (triethanolamine, EDTA, pH 7.0). The final volume of each incubation is 100 μl. The reaction mixture is obtained by mixing the following 6 components on ice:
"REA mix" (pH 7.0), which contains triethanolamine, calcium chloride, magnesium chloride, EDTA, L-arginine, calmodulin and flavine adenine dinucleotide (FAD);
2. freshly prepared stock solution of β-nicotinamide adenine dinucleotide phosphate, reduced form (NADPH); […]
Triethanolamine 50 mM, EDTA 0.5 mM, CaCl2 226 μM, MgCl2 477 μM, L-arginine 50 μM, calmodulin 0.5 μM, FAD 5 μM, NADPH 1 mM, BH4 (if added) 2 μM, substance to be tested 100 μM. […] 9 ml of scintillator solution are added to the 3 ml aqueous measuring solution and the homogeneous mixture is measured for 1 minute per sample in a Tricarb 2500 TR (Packard) liquid scintillation counter. […]

remaining activity at 100 µM [%]	Structure (SMILES)
22.9	CSCc1cnc2nc(N)[nH]c(=O)c2n1 [Example 37]
2.5	Nc1nc2ncc(COC(=O)C(Cc3ccccc3)NC(=O)OCc3ccccc3)nc2c(=O)[nH]1 (stereo not shown) [Example 23]
60.8	CC(NC(=O)OCc1ccccc1)C(=O)OCc1cnc2nc(N)[nH]c(=O)c2n1 (stereo not shown) [Example 21]

From patent US5902810A, “Pteridine derivatives as no synthase inhibitors” (Hoechst Aktiengesellschaft, priority 1994, dated 1999)
